From US8507219B2, “Method of treating inflammation with statins” (MUSC Foundation for Research Development, priority 1997, dated 2013)

Experiments:
[1] = system: NF-kβ; format: cell-based, rat; conditions: LPS 1.0 μg/ml, 1 h
Procedure: Preparation of Nuclear Extracts and Electrophoretic Mobility shift assay Nuclear extracts from stimulated or unstimulated astrocytes (1×10^7 cells) were prepared using the method of Dignam et al. (1983) with slight modification. Cells were harvested, washed twice with ice-cold phosphate-buffered saline and lysed in 400 μl of buffer A (10 mM HEPES, pH 7.9, 10 mM KCl, 2 mM MgCl2, 0.5 mM DTT, 1 mM PMSF, 5 μg/ml aprotinin, 5 μg/ml pepstatin A, and 5 μg/ml leupeptin (Sigma, St. Louis, Mo.) containing 0.1% Nondet P-40 for 15 min on ice, vortexed vigorously for 15 s, and centrifuged at 14,000 rpm for 30 s. The pelleted nuclei were resuspended in 40 μl of buffer B (20 mM HEPES, pH 7.9, 25% (v/v) glycerol, 0.42 M NaCl, 1.5 mM MgCl2, 0.2 mM EDTA, 0.5 mM DTT, 1 mM PMSF, 5 μg/ml aprotinin, 5 μg/ml pepstatin A, and 5 μg/ml leupeptin). After 30 min on ice, lysates were centrifuged at 14,000 rpm for 10 min. Supernatants containing the nuclear proteins were diluted with 20 μl of modified buffer C (20 mM HEPES, pH 7.9, 20% (v/v) glycerol, 0.05 M KCl, 0.2 mM EDTA, 0.5 mM DTT, and 0.5 mM PMSF) and stored at −70° C. until use. Nuclear extracts were used for the electrophoretic mobility shift assay using the NF-kβ DNA binding protein detection system kit (GIBCO/BRL), according to the manufacturer's protocol.
Preparation of nuclear extracts and electrophoretic mobility shift assay Nuclear extracts from stimulated or unstimulated astrocytes (1×10^7 cells) were prepared as described (Dignam et al., 1983) with slight modification. Cells were harvested, washed twice with ice-cold phosphate-buffered saline and lysed in 400 μl of buffer A (10 mM HEPES, pH 7.9, 10 mM KCl, 2 mM MgCl2, 0.5 mM DTT, 1 mM PMSF, 5 μg/ml aprotinin, 5 μg/ml pepstatin A, and 5 μg/ml leupeptin) containing 0.1% Nonidet P40 for 15 min on ice, vortexed vigorously for 15 s, and centrifuged at 14,000 rpm for 30 s. […]

[2] = system: iNOS activity in rat primary astrocytes; test: iNOS activity (arginine to citrulline) in homogenates of treated rat primary astrocytes; format: cell-based; conditions: 10 μM
Procedure: NOS activity was measured directly by production of L-[2,3,4,5-^3H]citrulline from L-[2,3,4,5-^3H] arginine (Feinstein et al., 1994a). […] Assays were carried out for 30 to 40 min and the production of L-[2,3,4,5-^3H] citrulline was linear. The reactions were stopped by addition of 800 μl of ice-cold 20 mM HEPES (pH 5.5) followed by addition of 2 ml of Dowex-50W equilibrated in the same buffer. The samples were then centrifuged and the concentration of L-[^3H]citrulline was determined in the supernatant by liquid scintillation counting.
Dose Dependence of Forskolin Inhibition of the LPS Stimulation of iNOS Astrocytes were incubated with different concentrations of forskolin 15 min before the addition of 1 μg/ml LPS, and after 24 h the iNOS activity was measured as nitrite concentrations in the supernatant and conversion of arginine to citrulline in the cellular homogenates (FIG. 1). The level of nitrite and iNOS activity were inhibited to a similar degree at all the concentrations of forskolin tested. […] . […] This may be due to the fact that PKA was already completely activated in extracts of cells incubated with 10 μM forskolin. The PKA activity increased with the increase in forskolin concentration. The reciprocal relationship of production of NO and iNOS activity with PKA activity supports the conclusion that PKA plays a pivotal role in the regulation of iNOS expression in astrocytes.

[3] = system: cultured skin fibroblasts of X-ALD; test: VLCFA ratios (C26:0/C22:0, C24:0/C22:0) in X-ALD skin fibroblasts; format: cell-based, human; conditions: about 15 days of treatment
[4] = system: control human skin fibroblasts; test: β-oxidation of lignoceric acid in control human skin fibroblasts; format: cell-based

## COc1cccc(-c2cc(=O)c3ccccc3o2)c1N [PD 98059]
[1]
  LPS-induced activation of NF-kβ: inhibits the LPS-induced activation of NF-kB and the induction of iNOS in astrocytes

## C=C[C@@]1(C)CC(=O)[C@@H]2[C@@]3(C)CCCC(C)(C)[C@@H]3[C@H](O)[C@H](OC(C)=O)[C@@]2(C)O1 [dideoxyforskolin, 1,9-dideoxyforskolin]
[2]
  LPS induced iNOS activity and PKA activity: neither inhibited the LPS induced iNOS activity nor stimulated the PKA activity
[3]
  ratios of C26:0/C22:0 and C24:0/C22:0 / level of VLCFA: had no effect on the ratios of C26:0/C22:0 and C24:0/C22:0
[4]
  Lignoceric acid β-oxidation: 571.4 ± 39.6 pmol/h/mg protein
